Experimental data reported in patent US4581847A, “Tryptophan overproducer mutants of cereal crops” (Molecular Genetics Research and Development, priority 1984, dated 1986).
Where two headings read alike, the source gives them in different places.

Assays:
maize line C66 callus = test: Callus growth inhibition study, resistant line C66; type: cell-based; settings: C66, 5MT at 100 μM or below
Procedure: (§1) The tryptophan analog, 5-methyltryptophan (5MT), was used for selection of tryptophan overproducer mutants as discussion in Section 5 supra. The effect of various concentrations of 5MT on callus growth on solid media was determined. Quantities of tissue averaging 50 mg in size were transferred to nutrient agar maintenance media containing 5MT concentrations ranging from 1.0 to 200 μM. Four tissue pieces were placed on each plate with four plates per analog concentration. After 28 days growth, the tissue was weighed again.
For each transfer all tissue showing growth and somatic embryo forming ability were placed on fresh media. At the third transfer, the concentration of 5MT was increased to 100 μM. During the course of the selection process, the total number of lines decreased as the analog mediated growth inhibition became more intense. Two lines however, increased in size and by the end of the fourth month of selection were identified as resistant to 5MT. These cell lines were identified as maize line C28 and C66. […] Throughout this selection process, the selected cell lines maintained a friable appearance that was similar to the appearance of the original parent cell line.

maize line C28 callus = test: Four week callus growth inhibition study, resistant line C28; type: cell-based
Procedure: as §1
For each transfer all tissue showing growth and somatic embryo forming ability were placed on fresh media. At the third transfer, the concentration of 5MT was increased to 100 μM. During the course of the selection process, the total number of lines decreased as the analog mediated growth inhibition became more intense. Two lines however, increased in size and by the end of the fourth month of selection were identified as resistant to 5MT. These cell lines were identified as maize line C28 and C66. […]
Four week growth inhibition studies were carried out with 5MT as described supra. The level of 5MT giving 50% growth inhibition was determined to be between 300 and 400 μM for the C28 line compared to 3 to 10 μM for unselected parent tissue. […]

[1] = tested on: anthranilate synthase (crude callus extracts: AB108 control, K17 line of C28); test: Anthranilate synthase assay with 5MT as enzyme inhibitor; type: biochemical, maize; settings: 30° C., 30 minutes, 0.25 mM chorismate, 20 mM L-glutamine; FIG. 4
Procedure: Assays were conducted to determine whether 5MT resistance was conferred by an alteration in the gene that codes for the anthranilate synthase enzyme. Crude enzyme extract of AB108 control callus and the selected K17 line of C28 callus were prepared as described below. The K17 line of C28 was derived from a regenerated C28 plant crossed with a control plant and then self-pollinated. Immature embryos were then cultured and a callus line developed as described previously.
Plant callus tissue was ground using a mortar and pestle and extracted with 0.2 M Tris-HCl, pH 8.2, 60% glycerol, 0.2 mM dithiothreitol (DTT), 0.2 mM ethylenediaminetetraacetic acid (EDTA), 1.0 mM magnesium sulfate (MgSO4), 20 mM sodium chloride (NaCl) and 1.0 mM L-tryptophan. One ml extraction buffer was used per 2 g callus. The extract was centrifuged at 10,000×g for 25 minutes at 4° C. The supernatant was applied to a 3 cm×15 cm Bio Gel-P6 column (Bio-Rad, Richmond, Calif.) equilibrated with 0.1 M Tris-HCl, pH 7.6, 10% glycerol, 0.1 mM DTT and 0.1 mM EDTA and eluted with the same buffer. 0.75 ml fractions were collected and fractions containing protein were pooled. […]
Assays were conducted in 1 ml volumes as follows. […] The fluorescence due to the production of anthranilate was measured in the 3.5 ml extractant using a Kratos FS950 fluorimeter (Kratos Analytical Instruments, Ramsey, N.J.).

[2] = tested on: maize callus tissue (unselected parent, A188 x B73); test: Callus culture growth inhibition by 5MT, unselected parent tissue; type: cell-based; settings: for IC50: Zea mays, 672 h
Procedure: Friable, embryogenic maize callus cultures were initiated from hybrid immature embryos produced by pollination of inbred line A188 plants (University of Minnesota, Crop Improvement Association) with pollen of Inbred line B73 plants (Iowa State University). Ears were harvested when embryos had reached a length of 1.5 to 2.0 mm. The whole ear was surface sterilized in […] commercial bleach (2.63% w/v sodium hypochlorite) for 20 minutes at room temperature. The ears were then washed with sterile distilled, deionized water. Immature embryos were aseptically isolated and placed on nutrient agar initiation/maintenance media with the root/shoot axis exposed to the media. Initiation/maintenance media consisted of N6 basal media (Chih-ching in Proceedings of Symposium on Plant Tissue Culture, May 25-30, 1978, Science Press, Peking, pp. 43-50) with 2% (w/v) sucrose, 1.5 mg per liter 2,4-dichlorophenoxyacetic acid (2,4-D), 6 mM proline, and 0.9% (w/v) agar.
The immature embryos were incubated at 26° C. in the dark. Cell proliferations from the scutellum of the immature embryos were evaluated for friable consistency and the presence of well defined somatic embryos. Tissue with this morphology was transferred to fresh media 10 to 14 days after the initial plating of the immature embryos. The tissue was then subcultured on a routine basis every 12 to 16 days. Sixty to eighty milligram quantities of tissue were removed from pieces of tissue that had reached a size of approximately one gram and transferred to fresh media. Subculturing always involved careful visual monitoring to be sure that only tissue of the correct morphology was maintained. The presence of the somatic embryos ensured that the cultures would give rise to plants under the proper conditions.
as §1

Cc1ccc2[nH]cc(C[C@H](N)C(=O)O)c2c1 [5MT, 5-methyltryptophan]
Growth inhibition by the analog compared to parental cell line AB1 (FIG. 2) (maize line C66 callus): no longer seriously inhibited
Growth inhibition by the analog compared to parental cell line AB1 (FIG. 2) (maize line C28 callus; C28, 5MT at 100 μM or below): no longer seriously inhibited
IC50 (maize line C28 callus; Zea mays, 672 h, C28 line, four week growth inhibition, read-out: Level of 5MT giving 50% growth inhibition): 300 to 400 µM
Fold higher 5MT level needed for 50% inhibition of C28 AS compared with control AS [1]: 10 fold
IC50 ([2]; callus on solid maintenance media, 28 days growth, 1.0 to 200 μM 5MT, read-out: 5MT concentration giving half maximal inhibition of growth rate): 3 to 10 µM
IC50 ([2]; unselected parent tissue, four week growth inhibition, read-out: Level of 5MT giving 50% growth inhibition): 3 to 10 µM
Cell death ([2]; analog concentrations of 100 and 200 μM, 28 days): Cell death was observed

N[C@@H](Cc1c[nH]c2ccccc12)C(=O)O [Tryptophan]
Reversal of growth inhibitory effects of 5MT ([2]; tryptophan added to 5MT-inhibited callus): reverse all the growth inhibitory effects of 5MT
